Our source for the IC20 and IC50 values is ChEMBL document CHEMBL1212908, “Flavonoids in the poisonous plant Oxytropis falcata” (J Nat Prod, 2010).

The test system of test [1] is Radical scavenging activity. As to the kind of experiment: Antioxidant activity assessed as DPPH free radical scavenging activity after 30 mins. The test is classed as functional. Background: The DPPH test is a chemical assay of radical scavenging.
Another test concerns HL-60. As to the kind of experiment: Cytotoxicity against human HL60 cells by MTT assay. The test is classed as functional, cell-based. Background: Tetrazolium dyes change colour on reduction, which living cells bring about.

For orientation: IC20 means the concentration needed for an effect of 20%. A word on the IC50: it is the concentration at which inhibition is half-maximal. A higher IC50 goes with lower potency. For the compound `COc1c(O)cc2c(c1OC)O[C@H]1c3ccc(O)cc3OC[C@@H]21`, the IC20 in test [1] stood at 3.8 µM. For the same compound, the concentration for half-maximal inhibition (IC50) in the test on HL-60 was over 50 µM.

With `COc1ccc([C@@H]2COc3cc(O)c(C(c4ccc(O)cc4O)C(O)Cc4ccc(O)cc4)cc3C2)c(O)c1OC` (some centres not stated) [OXYTROPISOFLAVAN A], the IC20 in test [1] was over 50 µM. This compound registered a half-maximal inhibitory concentration (IC50) in the test with HL-60 of over 50 µM.

Turning to `COc1ccc([C@@H]2COC3=CC(=O)CC[C@]3(O)C2)c(O)c1OC` [OXYTROPISOFLAVAN B], in test [1], the IC20 is over 50 µM. Besides, the 50% inhibitory concentration (IC50) in the test with HL-60 is over 50 µM.

VITAMIN E: the IC20 in test [1] worked out at 7.6 µM.
